According to article PMC10233710 (ChemMedChem, 2023):
Like-named read-outs stand apart in the source and are kept apart here.

Experiments:
MCF-7 cells = assay: MTT cytotoxicity assay, MCF-7; type: cell-based, human; conditions: Homo sapiens, MCF7, 72 h, read-out: GI50 ± SD (μM) MCF-7
recombinant TOP1 = biological target: T1, recombinant TOP1 (Homo sapiens, UniProt P11387); assay: TOP1-mediated DNA cleavage assay; type: biochemical; conditions: TOP1 cleavage inhibitory activity, semiquantitative relative to CPT at 1 μM
T1 sequence (P11387 1-765): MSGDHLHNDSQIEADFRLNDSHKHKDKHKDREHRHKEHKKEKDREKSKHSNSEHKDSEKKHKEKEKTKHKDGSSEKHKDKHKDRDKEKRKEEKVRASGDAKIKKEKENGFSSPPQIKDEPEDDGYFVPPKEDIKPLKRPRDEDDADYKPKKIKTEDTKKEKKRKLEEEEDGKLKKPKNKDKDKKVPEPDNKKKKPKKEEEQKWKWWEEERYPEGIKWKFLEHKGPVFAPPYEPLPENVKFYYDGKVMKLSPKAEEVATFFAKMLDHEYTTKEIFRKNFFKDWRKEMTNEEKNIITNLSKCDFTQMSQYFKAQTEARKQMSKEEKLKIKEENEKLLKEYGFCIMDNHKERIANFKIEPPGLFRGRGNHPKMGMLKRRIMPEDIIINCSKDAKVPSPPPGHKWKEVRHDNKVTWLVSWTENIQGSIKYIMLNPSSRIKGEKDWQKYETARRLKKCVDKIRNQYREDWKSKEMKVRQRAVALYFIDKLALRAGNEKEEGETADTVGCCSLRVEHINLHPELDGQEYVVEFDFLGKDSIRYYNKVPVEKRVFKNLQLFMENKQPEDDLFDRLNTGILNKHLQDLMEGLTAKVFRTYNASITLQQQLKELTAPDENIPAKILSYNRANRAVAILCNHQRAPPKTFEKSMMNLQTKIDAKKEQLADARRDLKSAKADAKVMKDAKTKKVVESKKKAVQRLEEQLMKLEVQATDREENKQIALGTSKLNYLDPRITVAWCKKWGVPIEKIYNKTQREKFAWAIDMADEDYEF

HCT-116 cells = assay: MTT cytotoxicity assay, HCT-116; type: cell-based, human; conditions: Homo sapiens, HCT-116, 72 h, read-out: GI50 ± SD (μM) HCT-116
recombinant human TDP1 = recombinant human TDP1 (Homo sapiens, UniProt Q9NUW8); assay: TDP1 gel-based inhibition assay; type: biochemical
recombinant human TDP1, sequence (Q9NUW8 whole entry): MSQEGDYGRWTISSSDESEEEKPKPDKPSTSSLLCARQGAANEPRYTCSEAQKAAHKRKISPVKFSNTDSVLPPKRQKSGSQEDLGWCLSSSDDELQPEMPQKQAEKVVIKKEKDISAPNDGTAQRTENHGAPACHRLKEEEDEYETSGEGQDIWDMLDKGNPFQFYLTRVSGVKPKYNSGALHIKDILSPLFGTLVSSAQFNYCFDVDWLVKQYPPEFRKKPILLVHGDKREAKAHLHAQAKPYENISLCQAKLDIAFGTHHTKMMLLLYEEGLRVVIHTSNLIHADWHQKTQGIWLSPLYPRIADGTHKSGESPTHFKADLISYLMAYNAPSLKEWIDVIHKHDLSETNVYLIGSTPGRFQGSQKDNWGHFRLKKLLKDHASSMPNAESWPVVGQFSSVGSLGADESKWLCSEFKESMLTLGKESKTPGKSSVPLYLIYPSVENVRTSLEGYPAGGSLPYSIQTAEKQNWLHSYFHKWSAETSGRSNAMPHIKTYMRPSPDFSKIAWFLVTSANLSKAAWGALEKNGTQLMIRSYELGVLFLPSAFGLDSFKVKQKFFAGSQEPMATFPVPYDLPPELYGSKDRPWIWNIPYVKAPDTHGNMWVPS

Row | Compound | GI50 (MCF-7 cells) [µM] | TOP1 Inhibition (recombinant TOP1; Table 1) | GI50 (HCT-116 cells) [µM] | IC50 (recombinant human TDP1) [µM] | TOP1 Inhibition (recombinant TOP1; Table 2) | IC50 (recombinant human TDP1; read-out: IC50 (μM) for TDP1, gel-based assay, Table 2) [µM]
1 | COc1cc2c(=O)n(C)c3c4cc5c(cc4c(OCCCN4CCN(C)CC4)cc3c2cc1OC)OCO5 [Compound 19, 2,3-Dimethoxy-12-methyl-6-(3-(4-methylpiperazin-1-yl)propoxy)-[1,3]dioxolo[4’,5’:4,5]benzo[1,2-c]phenanthridin-13(12H)-one] | 0.93 ± 0.07 | ++ (++, between 50% and 75% activity) | 1.5 ± 0.21 | > 111 | – | –
2 | COc1cc2c(=O)n(C)c3c4cc5c(cc4c(OCCn4ccnc4)cc3c2cc1OC)OCO5 [Compound 20, 6-(2-(1H-Imidazol-1-yl)ethoxy)-2,3-dimethoxy-12-methyl-[1,3]dioxolo[4’,5’:4,5]benzo[1,2-c]phenanthridin-13(12H)-one] | 2.7 ± 0.23 | ++ (++, between 50% and 75% activity) | 2.9 ± 0.45 | > 111 | – | –
3 | COc1cc2c(=O)n(C)c3c4cc5c(cc4c(OCCCn4ccnc4)cc3c2cc1OC)OCO5 [Compound 21, 6-(3-(1H-Imidazol-1-yl)propoxy)-2,3-dimethoxy-12-methyl-[1,3]dioxolo[4’,5’:4,5]benzo[1,2-c]phenanthridin-13(12H)-one] | 64 ± 3.9 | 0 | 16 ± 3.6 | > 111 | – | –
4 | COc1cc2c(=O)n(C)c3c4cc5c(cc4c(OCCNCCN(C)C)cc3c2cc1OC)OCO5 [Compound 22, 6-(2-((2-(Dimethylamino)ethyl)amino)ethoxy)-2,3-dimethoxy-12-methyl-[1,3]dioxolo[4’,5’:4,5]benzo[1,2-c]phenanthridin-13(12H)-one] | 9.1 ± 2.4 | + (+, between 20% and 50% activity) | 9.1 ± 1 | > 111 | – | –
5 | CCOC(=O)COc1cc2c3cc(OC)c(OC)cc3c(=O)n(C)c2c2cc3c(cc12)OCO3 [Compound 23, Ethyl 2-((2,3-dimethoxy-12-methyl-13-oxo-12,13-dihydro-[1,3]dioxolo[4’,5’:4,5]benzo[1,2-c]phenanthridin-6-yl)oxy)acetate] | 91 ± 5.9 | 0 | > 100 | > 111 | – | –
6 | COc1cc2c(=O)n(C)c3c4cc5c(cc4cc(O)c3c2cc1OC)OCO5 [Compound 33, 5-Hydroxy-2,3-dimethoxy-12-methyl-[1,3]dioxolo[4’,5’:4,5]benzo[1,2-c]phenanthridin-13(12H)-one] | > 100 | – | > 100 | > 111 | + (+, between 20% and 50% activity) | –
7 | COc1cc2c(=O)n(C)c3c4cc5c(cc4cc(OCCN(C)C)c3c2cc1OC)OCO5 [Compound 34, 5-(2-(Dimethylamino)ethoxy)-2,3-dimethoxy-12-methyl-[1,3]dioxolo[4’,5’:4,5]benzo[1,2-c]phenanthridin-13(12H)-one] | 27 ± 1.5 | – | 11 ± 0.48 | 37 to 111 | + (+, between 20% and 50% activity) | –
8 | CCN(CC)CCOc1cc2cc3c(cc2c2c1c1cc(OC)c(OC)cc1c(=O)n2C)OCO3 [Compound 36, 5-(2-(Diethylamino)ethoxy)-2,3-dimethoxy-12-methyl-[1,3]dioxolo[4’,5’:4,5]benzo[1,2-c]phenanthridin-13(12H)-one] | 1.6 ± 0.17 | – | 2.1 ± 0.23 | – | 0 | > 111
9 | CCN(CC)CCCOc1cc2cc3c(cc2c2c1c1cc(OC)c(OC)cc1c(=O)n2C)OCO3 [Compound 37, 5-(3-(Diethylamino)propoxy)-2,3-dimethoxy-12-methyl-[1,3]dioxolo[4’,5’:4,5]benzo[1,2-c]phenanthridin-13(12H)-one] | 2 ± 0.1 | – | 2.4 ± 0.11 | 15 ± 2.4 | + (+, between 20% and 50% activity) | –
10 | COc1cc2c(=O)n(C)c3c4cc5c(cc4cc(OCCCN4CCCC4)c3c2cc1OC)OCO5 [Compound 39, 2,3-Dimethoxy-12-methyl-5-(3-(pyrrolidin-1-yl)propoxy)-[1,3]dioxolo[4’,5’:4,5]benzo[1,2-c]phenanthridin-13(12H)-one] | 1.4 ± 0.13 | – | 1.3 ± 0.21 | 15 ± 2.8 | + (+, between 20% and 50% activity) | –
11 | COc1cc2c(=O)n(C)c3c4cc5c(cc4cc(OCCN4CCOCC4)c3c2cc1OC)OCO5 [Compound 40, 2,3-Dimethoxy-12-methyl-5-(2-morpholinoethoxy)-[1,3]dioxolo[4’,5’:4,5]benzo[1,2-c]phenanthridin-13(12H)-one] | 18 ± 0.67 | – | 15 ± 1.08 | > 111 | ++ (++, between 50% and 75% activity) | –
